Reference: patent US10010547B2 (CASCADIAN THERAPEUTICS, INC., priority 2014, dated 2018)
Counter-ions that a name gives are not always drawn. Like-named read-outs stand apart in the source and are kept apart here. Values belong to the compound of their own block, whether it stands above or below them.

Columns and labels:
MIA PaCa-2 cells = experiment: Gemcitabine Combination Cell Assay (Cell Titer Glo); assay type: cell-based; settings: for IC50: Homo sapiens; for 10xLS: approximate concentration of Chk1 inhibitor that results in a 10-fold reduction in the IC50 of gemcitabine alone; for 2xLS: approximate concentration of Chk1 inhibitor that results in a two-fold reduction in the IC50 of gemcitabine alone
How it was run: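 MIA PaCa-2 cells were treated 72 h with half-log dilutions of Chk1 inhibitor (top 3000 nM) and gemcitabine (top 100 nM), alone and in full matrix; viability by CellTiter-Glo luminescence. IC50s from four-parameter fit; Chk1 inhibitor concentrations giving two- and ten-fold lowering of gemcitabine IC50 were estimated.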

Chk-1 kinase = Chk-1 kinase (Homo sapiens (Human), UniProt O14757); experiment: Chk-1 Kinase Inhibiting Activity (33P-ATP filter assay, CHKtide substrate); assay type: biochemical; settings: against Chk-1 kinase; read-out: IC50
Chain of Chk-1 kinase (O14757 whole entry): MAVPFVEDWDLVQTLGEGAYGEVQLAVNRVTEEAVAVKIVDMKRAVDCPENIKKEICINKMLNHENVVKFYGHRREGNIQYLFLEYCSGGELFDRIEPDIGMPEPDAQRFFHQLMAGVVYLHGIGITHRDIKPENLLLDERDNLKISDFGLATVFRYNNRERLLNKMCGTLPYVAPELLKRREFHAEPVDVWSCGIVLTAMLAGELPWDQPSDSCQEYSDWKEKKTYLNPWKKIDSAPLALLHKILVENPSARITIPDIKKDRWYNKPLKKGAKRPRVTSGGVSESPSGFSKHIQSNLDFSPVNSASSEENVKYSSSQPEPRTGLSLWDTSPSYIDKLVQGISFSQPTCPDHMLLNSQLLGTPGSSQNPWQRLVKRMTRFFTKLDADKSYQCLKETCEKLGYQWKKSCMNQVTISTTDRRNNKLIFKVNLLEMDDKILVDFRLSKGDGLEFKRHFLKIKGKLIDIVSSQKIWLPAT
How it was run: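 Full-length N-terminal GST-tagged human Chk-1 from insect cells, 0.5 nM final, with 20 μM peptide substrate and 33P-ATP in HEPES pH 7.5 buffer with 1% DMSO. Reaction ran 120 minutes at room temperature; incorporated radioactivity captured on P81 filters and counted for IC50.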

[1] = Chk1 inhibitor alone, MIA PaCa-2 cells, 72 h, read-out: Chk1 IC50
[2] = MIA PaCa-2, 72 h, read-out: Chk1 IC50 (nM)

Structure (SMILES): COc1cc(CNC2CCN(C)CC2)ccc1-c1cc(Nc2cnc(C#N)cn2)n[nH]1 [Example 37, 5-[[5-[2-methoxy-4-[[(1-methyl-4-piperidyl)amino]methyl]phenyl]-1H-pyrazol-3-yl]amino]pyrazine-2-carbonitrile]
IC50 (MIA PaCa-2 cells; [1]): 182 nM
10xLS (MIA PaCa-2 cells; MIA PaCa-2 cells, 72 h): <100 nM
2xLS (MIA PaCa-2 cells; MIA PaCa-2 cells, 72 h): 3 nM
IC50 (Chk-1 kinase): 0.11 nM

Structure (SMILES): CN1CCC(c2ccc(-c3cc(Nc4cnc(C#N)cn4)n[nH]3)cc2)CC1 [Example 27, 5-[[5-[4-(1-methyl-4-piperidyl)phenyl]-1H-pyrazol-3-yl]amino]pyrazine-2-carbonitrile]
IC50 (MIA PaCa-2 cells; [1]): 5750 nM
10xLS (MIA PaCa-2 cells; MIA PaCa-2 cells, 72 h): 3000 nM
2xLS (MIA PaCa-2 cells; MIA PaCa-2 cells, 72 h): 300 nM
IC50 (Chk-1 kinase): 3.6 nM

Structure (SMILES): COc1cc(C2CCN(C)CC2)ccc1-c1cc(Nc2cnc(Cl)cn2)n[nH]1 [Example 44, 5-chloro-N-[5-[2-methoxy-4-(1-methyl-4-piperidyl)phenyl]-1H-pyrazol-3-yl]pyrazin-2-amine]
IC50 (MIA PaCa-2 cells; [1]): 1260 nM
10xLS (MIA PaCa-2 cells; MIA PaCa-2 cells, 72 h): 1000 nM
2xLS (MIA PaCa-2 cells; MIA PaCa-2 cells, 72 h): 100 nM
IC50 (Chk-1 kinase): 0.69 nM

Structure (SMILES): COc1cc(CN2CC[C@@H](F)C2)ccc1-c1cc(Nc2cnc(C#N)cn2)n[nH]1 [Example 123, 5-[[5-[4-[[(3R)-3-fluoropyrrolidin-1-yl]methyl]-2-methoxy-phenyl]-1H-pyrazol-3-yl]amino]pyrazine-2-carbonitrile hydrochloride]
IC50 (MIA PaCa-2 cells; [2]): 440 nM
10xLS (MIA PaCa-2 cells; MIA PaCa-2 cells, 72 h): <300 nM
2xLS (MIA PaCa-2 cells; MIA PaCa-2 cells, 72 h): 3 nM
IC50 (Chk-1 kinase): 0.16 nM

Structure (SMILES): CCN1CCC[C@H]1COc1ccc(-c2cc(Nc3cnc(C#N)cn3)n[nH]2)c(OC)c1 [Example 128, 5-[[5-[4-[[(2S)-1-ethylpyrrolidin-2-yl]methoxy]-2-methoxy-phenyl]-1H-pyrazol-3-yl]amino]pyrazine-2-carbonitrile]
IC50 (MIA PaCa-2 cells; [1]): 158 nM
10xLS (MIA PaCa-2 cells; MIA PaCa-2 cells, 72 h): <100 nM
2xLS (MIA PaCa-2 cells; MIA PaCa-2 cells, 72 h): <3 nM
IC50 (Chk-1 kinase): 0.023 nM

Structure (SMILES): COc1cc(O[C@@H]2CCN(C(C)C)C2)ccc1-c1cc(Nc2cnc(C#N)cn2)n[nH]1 [Example 95, 5-[[5-[4-[(3R)-1-isopropylpyrrolidin-3-yl]oxy-2-methoxy-phenyl]-1H-pyrazol-3-yl]amino]pyrazine-2-carbonitrile]
IC50 (MIA PaCa-2 cells; [1]): 183 nM
10xLS (MIA PaCa-2 cells; MIA PaCa-2 cells, 72 h): <100 nM
2xLS (MIA PaCa-2 cells; MIA PaCa-2 cells, 72 h): <3 nM
IC50 (Chk-1 kinase): 0.15 nM

Structure (SMILES): COc1cc(CN[C@@H](C)c2ccc(F)cc2)ccc1-c1cc(Nc2cnc(C#N)cn2)n[nH]1 [Example 6, 5-[5-(4-{[(S)-1-(4-fluoro-phenyl)-ethylamino]-methyl}-2-methoxy-phenyl)-1H-pyrazol-3-ylamino]-pyrazine-2-carbonitrile]
IC50 (MIA PaCa-2 cells; [1]): 338 nM
10xLS (MIA PaCa-2 cells; MIA PaCa-2 cells, 72 h): 300 nM
2xLS (MIA PaCa-2 cells; MIA PaCa-2 cells, 72 h): 30 nM
IC50 (Chk-1 kinase): 0.097 nM

Structure (SMILES): COc1cc(NCC2CCN(C)CC2)ccc1-c1cc(Nc2cnc(C#N)cn2)n[nH]1 [Example 107, 5-[[5-[2-Methoxy-4-[(1-methyl-4-piperidyl)methylamino]phenyl]-1H-pyrazol-3-yl]amino]pyrazine-2-carbonitrile hydrochloride]
IC50 (MIA PaCa-2 cells; [2]): 160 nM
10xLS (MIA PaCa-2 cells; MIA PaCa-2 cells, 72 h): 100 nM
2xLS (MIA PaCa-2 cells; MIA PaCa-2 cells, 72 h): 3 nM
IC50 (Chk-1 kinase): 0.081 nM

Structure (SMILES): COc1cc(C2CCN(C)CC2)ccc1-c1cc(Nc2cnc(C#N)cn2)n[nH]1 [Example 11, 5-{5-[2-Methoxy-4-(1-methyl-piperidin-4-yl)-phenyl]-1H-pyrazol-3-ylamino}-pyrazine-2-carbonitrile hydrochloride]
IC50 (MIA PaCa-2 cells; [2]): 214 nM
10xLS (MIA PaCa-2 cells; MIA PaCa-2 cells, 72 h): <100 nM
2xLS (MIA PaCa-2 cells; MIA PaCa-2 cells, 72 h): 3 nM
IC50 (Chk-1 kinase): 0.048 nM

Structure (SMILES): COc1cc(C2CCN(C)CC2)ccc1-c1cc(Nc2ccc(C#N)c(F)c2)n[nH]1 [Example 30, 2-fluoro-4-[[5-[2-methoxy-4-(1-methyl-4-piperidyl)phenyl]-1H-pyrazol-3-yl]amino]benzonitrile]
IC50 (MIA PaCa-2 cells; [1]): > 3000 nM
10xLS (MIA PaCa-2 cells; MIA PaCa-2 cells, 72 h): >3000 nM
2xLS (MIA PaCa-2 cells; MIA PaCa-2 cells, 72 h): 1000 nM
IC50 (Chk-1 kinase): 17 nM

Structure (SMILES): COc1cc(O[C@H]2CCNC2)ccc1-c1cc(Nc2cnc(C#N)cn2)n[nH]1 [Example 33, 5-[[5-[2-methoxy-4-[(3S)-pyrrolidin-3-yl]oxy-phenyl]-1H-pyrazol-3-yl]amino]pyrazine-2-carbonitrile]
IC50 (MIA PaCa-2 cells; [1]): 62 nM
10xLS (MIA PaCa-2 cells; MIA PaCa-2 cells, 72 h): <30 nM
2xLS (MIA PaCa-2 cells; MIA PaCa-2 cells, 72 h): <3 nM
IC50 (Chk-1 kinase): 0.074 nM

Structure (SMILES): CC(C)Oc1cc(C2CCN(C)CC2)ccc1-c1cc(Nc2cnc(C#N)cn2)n[nH]1 [Example 38, 5-[[5-[2-isopropoxy-4-(1-methyl-4-piperidyl)phenyl]-1H-pyrazol-3-yl]amino]pyrazine-2-carbonitrile]
IC50 (MIA PaCa-2 cells; [1]): 2750 nM
10xLS (MIA PaCa-2 cells; MIA PaCa-2 cells, 72 h): 1000 nM
2xLS (MIA PaCa-2 cells; MIA PaCa-2 cells, 72 h): 100 nM
IC50 (Chk-1 kinase): 0.88 nM

Structure (SMILES): COc1cc(N2CCN(C(C)C)CC2)cc(F)c1-c1cc(Nc2cnc(C#N)cn2)n[nH]1 [Example 137, 5-[[5-[4-(4-isopropylpiperazin-1-yl)-2-fluoro-6-methoxy-phenyl]-1H-pyrazol-3-yl]amino]pyrazine-2-carbonitrile]
IC50 (MIA PaCa-2 cells; [1]): 256 nM
10xLS (MIA PaCa-2 cells; MIA PaCa-2 cells, 72 h): <100 nM
2xLS (MIA PaCa-2 cells; MIA PaCa-2 cells, 72 h): <3 nM
IC50 (Chk-1 kinase): 0.048 nM

The next lines start with results.

IC50 (MIA PaCa-2 cells; [1]): 475 nM
IC50 (Chk-1 kinase): 0.18 nM
Structure (SMILES): COc1cc(O[C@H]2CCN(C(C)C)C2)ccc1-c1cc(Nc2cnc(C#N)cn2)n[nH]1 [Example 94, 5-[[5-[4-[(3S)-1-isopropylpyrrolidin-3-yl]oxy-2-methoxy-phenyl]-1H-pyrazol-3-yl]amino]pyrazine-2-carbonitrile]
10xLS (MIA PaCa-2 cells; MIA PaCa-2 cells, 72 h): 100 nM
2xLS (MIA PaCa-2 cells; MIA PaCa-2 cells, 72 h): 3 nM

IC50 (MIA PaCa-2 cells; [1]): 144 nM
IC50 (Chk-1 kinase): 0.022 nM
Structure (SMILES): COc1cc(C2CN(C)C2)ccc1-c1cc(Nc2cnc(C#N)cn2)n[nH]1 [Example 65, 5-[[5-[2-methoxy-4-(1-methylazetidin-3-yl)phenyl]-1H-pyrazol-3-yl]amino]pyrazine-2-carbonitrile]
10xLS (MIA PaCa-2 cells; MIA PaCa-2 cells, 72 h): <100 nM
2xLS (MIA PaCa-2 cells; MIA PaCa-2 cells, 72 h): 3 nM

IC50 (MIA PaCa-2 cells; [1]): 227 nM
IC50 (Chk-1 kinase): 0.077 nM
Structure (SMILES): COc1cc(CNCCN2CCOCC2)ccc1-c1cc(Nc2cnc(C#N)cn2)n[nH]1 [Example 9, 5-(5-{2-methoxy-4-[(2-morpholin-4-yl-ethylamino)-methyl]-phenyl}-1H-pyrazol-3-ylamino)-pyrazine-2-carbonitrile]
10xLS (MIA PaCa-2 cells; MIA PaCa-2 cells, 72 h): 100 nM
2xLS (MIA PaCa-2 cells; MIA PaCa-2 cells, 72 h): 3 nM

IC50 (MIA PaCa-2 cells; [1]): 441 nM
IC50 (Chk-1 kinase): 0.17 nM
Structure (SMILES): COc1cc(C2CCN(CCF)CC2)ccc1-c1cc(Nc2cnc(C#N)cn2)n[nH]1 [Example 106, 5-[[5-[4-[1-(2-fluoroethyl)-4-piperidyl]-2-methoxy-phenyl]-1H-pyrazol-3-yl]amino]pyrazine-2-carbonitrile]
10xLS (MIA PaCa-2 cells; MIA PaCa-2 cells, 72 h): 100 nM
2xLS (MIA PaCa-2 cells; MIA PaCa-2 cells, 72 h): 3 nM

IC50 (MIA PaCa-2 cells; [1]): 306 nM
IC50 (Chk-1 kinase): 0.082 nM
Structure (SMILES): COc1cc(N2CCN(CC(C)C)CC2)ccc1-c1cc(Nc2cnc(C#N)cn2)n[nH]1 [Example 142, 5-[[5-[4-(4-isobutylpiperazin-1-yl)-2-methoxy-phenyl]-1H-pyrazol-3-yl]amino]pyrazine-2-carbonitrile]
10xLS (MIA PaCa-2 cells; MIA PaCa-2 cells, 72 h): 100 nM
2xLS (MIA PaCa-2 cells; MIA PaCa-2 cells, 72 h): 3 nM

IC50 (MIA PaCa-2 cells; [1]): 199 nM
IC50 (Chk-1 kinase): 0.055 nM
Structure (SMILES): COc1cc(CN2CCCC2)ccc1-c1cc(Nc2cnc(C#N)cn2)n[nH]1 [Example 101, 5-[[5-[2-methoxy-4-(pyrrolidin-1-ylmethyl)phenyl]-1H-pyrazol-3-yl]amino]pyrazine-2-carbonitrile]
10xLS (MIA PaCa-2 cells; MIA PaCa-2 cells, 72 h): <100 nM
2xLS (MIA PaCa-2 cells; MIA PaCa-2 cells, 72 h): 3 nM

IC50 (MIA PaCa-2 cells; [1]): 829 nM
IC50 (Chk-1 kinase): 0.026 nM
Structure (SMILES): COc1cc(CC2CCN(C(C)C)CC2)ccc1-c1cc(Nc2cnc(C#N)cn2)n[nH]1 [Example 144, 5-[[5-[4-[(1-isopropyl-4-piperidyl)methyl]-2-methoxy-phenyl]-1H-pyrazol-3-yl]amino]pyrazine-2-carbonitrile]
10xLS (MIA PaCa-2 cells; MIA PaCa-2 cells, 72 h): <300 nM
2xLS (MIA PaCa-2 cells; MIA PaCa-2 cells, 72 h): 10 nM
